Measured values taken from patent publication US10906946B2, “Thrombin inhibitors” (priority 2015, dated 2021).
“Also recorded” adds a separate entry of the source. Ends that are not written are not given here. Peptide text beside a SMILES is read from it.

Tests used:
[1] = target: T1, human α-thrombin (Homo sapiens, UniProt P00734); test: Thrombin amidolytic activity assay with chromogenic substrate S2238; assay type: biochemical; details: for Hill slope of thrombin amidolytic inhibition: 0 min pre-incubation where stated
T1 construct: residues in the termini of the light chain; purchased Chemo-Sero-Therapeutic Research Institute (Kaketsuken, Japan), as a gift, not bought
Protocol: Thrombin amidolytic activity assays for all peptides were performed in 96-wells microtiter plates in 50 mM Tris buffer (pH 7.4) containing 100 mM NaCl and 1 mg/ml bovine serum albumin. […] The rates of formation of p-nitroaniline were followed by measuring the absorbance at 405 nm for 10 min with a Tecan InfinitePro M200 microplate reader from Tecan (Männedorf, Switzerland). Dose-response curves were fitted using the GraphPad Prizm software (San Diego, Calif., USA) to calculate IC50 values and Hill coefficients. To measure the inhibitory constants, different concentrations of S2238 were used and the residual velocities were determined using the Morrison's tight binding equation. Inhibition of thrombin fibrinogenolytic activity of peptides were tested by measuring absorbance at 650 nm using a Sunrise microplate reader from Tecan (Männedorf, Switzerland) as described previously [Koh C Y, et al., J Biol Chem 282: 29101-13 (2007)]. The selectivity of avathrin was examined against 13 serine proteases (FIG. 5). Effects of avathrin on the amidolytic activities of these serine proteases were determined using respective chromogenic substrates. […] Avathrin (150 μM) was incubated with thrombin (5 μM), in 50 mM Tris buffer (pH 7.4) containing 150 mM NaCl and 1 mg/ml BSA. After different incubation times, reactions were quenched with 1% TFA (pH 1.8) and loaded onto a Jupiter Proteo column (4 μm, 90 Å, 100×1.0 mm) attached to a Dionex nano-HPLC system from Thermo Fisher Scientific (Waltham, Mass., USA) and eluted using an acetonitrile gradient with 0.05% TFA and 99.95% MilliQ water as eluent A and 0.05% TFA, 19.95% MilliQ water and 80% ACN as eluent B. Masses of all peaks were measured to identify cleavage products, which were subsequently quantified by integrating the peaks and calculating the area under the curves. To measure the effect of different pre-incubation times on the thrombin inhibitory activity, amidolytic assays were performed for various incubation times (up to 36 h).

[2] = target: T2, thrombin (Homo sapiens, UniProt P00734); test: Inhibition of thrombin fibrinogenolytic activity (fibrinogen clotting time); assay type: biochemical
T2 construct: residues in the termini of the light chain; and in the autolysis loop and C-terminus of the heavy chain; purchased Chemo-Sero-Therapeutic Research Institute (Kaketsuken, Japan), as a gift, not bought
Protocol: Thrombin amidolytic activity assays for all peptides were performed in 96-wells microtiter plates in 50 mM Tris buffer (pH 7.4) containing 100 mM NaCl and 1 mg/ml bovine serum albumin. Typically, 100 μl of peptide and 100 μl of thrombin were pre-incubated for different durations before 100 μl of S2238 was added to the reaction wells. The rates of formation of p-nitroaniline were followed by measuring the absorbance at 405 nm for 10 min with a Tecan InfinitePro M200 microplate reader from Tecan (Männedorf, Switzerland). Dose-response curves were fitted using the GraphPad Prizm software (San Diego, Calif., USA) to calculate IC50 values and Hill coefficients. To measure the inhibitory constants, different concentrations of S2238 were used and the residual velocities were determined using the Morrison's tight binding equation. Inhibition of thrombin fibrinogenolytic activity of peptides were tested by measuring absorbance at 650 nm using a Sunrise microplate reader from Tecan (Männedorf, Switzerland) as described previously [Koh C Y, et al., J Biol Chem 282: 29101-13 (2007)]. The selectivity of avathrin was examined against 13 serine proteases (FIG. 5). Effects of avathrin on the amidolytic activities of these serine proteases were determined using respective chromogenic substrates. Cleavage of avathrin by thrombin. Avathrin (150 μM) was incubated with thrombin (5 μM), in 50 mM Tris buffer (pH 7.4) containing 150 mM NaCl and 1 mg/ml BSA. After different incubation times, reactions were quenched with 1% TFA (pH 1.8) and loaded onto a Jupiter Proteo column (4 μm, 90 Å, 100×1.0 mm) attached to a Dionex nano-HPLC system from Thermo Fisher Scientific (Waltham, Mass., USA) and eluted using an acetonitrile gradient with 0.05% TFA and 99.95% MilliQ water as eluent A and 0.05% TFA, 19.95% MilliQ water and 80% ACN as eluent B. Masses of all peaks were measured to identify cleavage products, which were subsequently quantified by integrating the peaks and calculating the area under the curves. To measure the effect of different pre-incubation times on the thrombin inhibitory activity, amidolytic assays were performed for various incubation times (up to 36 h).

[3] = system: platelets (ADP-induced platelet aggregation); test: Preservation of platelet function in blood tubes (Multiplate, ADP-induced platelet aggregation); assay type: cell-based, human (healthy volunteers); details: control tubes (0.109M citrate; >15 μg/ml hirudin), ADP agonist
Protocol: Individual peptides are dissolved in phosphate buffered saline to prepare 10× peptide solutions (ie. concentrations of peptides are 10 times higher than the final concentrations at which they are to be tested). 0.3 ml of the 10× peptide solutions are placed in blood tubes without any additives. Blood was drawn from healthy volunteers using syringes and immediately transferred to a 50 ml conical centrifuge tube (Falcon tube) before pipetting 2.7 ml of the blood into blood tubes with peptide solutions. Final concentrations of peptides are as stated in Table 5 and 6.
Blood tubes with various peptides at different concentrations were left standing at room temperature until tested at designated times. At different time points, tubes were inverted several times and blood samples were taken out for platelet aggregation tests using a Multiplate® Platelet aggregometer with adenosine diphosphate (ADP) as agonist according to manufacturer's recommended protocols.

[4] = IC50 of inhibition of thrombin amidolytic activity, thrombin 0.81 nM, S2238 100 μM, without pre-incubation (0 min) where stated
[5] = inhibitory constant Ki for thrombin, thrombin 0.81 nM, various S2238 concentrations

CC[C@H](C)[C@H](N)C(=O)N[C@@H](CO)C(=O)N[C@@H](CCCCN)C(=O)N[C@@H](CCC(N)=O)C(=O)NCC(=O)N[C@@H](CC(C)C)C(=O)NCC(=O)NCC(=O)N[C@@H](CC(=O)O)C(=O)N[C@@H](Cc1ccccc1)C(=O)N[C@@H](CCC(=O)O)C(=O)N[C@@H](CCC(=O)O)C(=O)N[C@H](C(=O)N1CCC[C@H]1C(=O)N[C@@H](CO)C(=O)N[C@@H](CC(=O)O)C(=O)N[C@@H](CCC(=O)O)C(=O)N[C@H](C(=O)N[C@H](C(=O)N[C@@H](CCC(=O)O)C(=O)O)[C@@H](C)CC)[C@@H](C)CC)[C@@H](C)CC [IS20] (H-ISKQGLGGDFEEIPSDEIIE-OH; N-terminus and C-terminus assumed)
Hill slope of thrombin amidolytic inhibition [1]: 0.86±0.02
Hill slope of thrombin amidolytic inhibition, 10 min pre-incubation ([1]; 10 min pre-incubation): 0.87±0.01
IC50 [1, 4]: 12.4 ± 0.32 nM
Ki ([1]; Ki(nM), Table 2): 5.76 ± 0.23 nM
Hill Slope ([1]; Table 2): 0.86 ± 0.02
effect on fibrinogen clotting time / thrombin fibrinogenolytic activity [2]: inhibited the fibrinogenolytic activity of thrombin in a dose-dependent manner; also recorded: prolonged fibrinogen clotting times in a dose dependent manner

hirudin [reference compound]
Multiplate AUC (U) ([3]; 1.5 h): 69.5 U
Multiplate AUC (U) ([3]; 4 h): 50.2 U
Multiplate AUC (U) ([3]; 24 h): 36.2 U
Multiplate AUC (U) ([3]; 48 h): 29.1 U
Multiplate AUC (U) ([3]; 72 h): 26.9 U

O=C(O)CC(O)(CC(=O)O)C(=O)O [citrate, reference compound]
Multiplate AUC (U) ([3]; 1.5 h): 37 U
Multiplate AUC (U) ([3]; 4 h): 32.2 U
Multiplate AUC (U) ([3]; 24 h): 12.9 U
Multiplate AUC (U) ([3]; 48 h): 1.4 U
Multiplate AUC (U) ([3]; 72 h): 0.7 U

GLGGDFEEIPSDEIIE [GL16]
effect on thrombin amidolytic activity ([1]; 3-300 μM): did not inhibit amidolytic activity even at 300 μM; also recorded: unable to inhibit thrombin amidolytic activity
Hill Slope ([1]; Table 2): N. I.
IC50(nM) ([1]; Table 2): N. I.*
Ki(nM) ([1]; Table 2): N. I.
activation of thrombin amidolytic activity ([1]; high concentrations, up to 300 μM): 5-10%
effect on fibrinogen clotting time / thrombin fibrinogenolytic activity [2]: inhibited the fibrinogenolytic activity; also recorded: prolonged fibrinogen clotting times in a dose dependent manner

CC[C@H](C)[C@H](NC(=O)[C@H](CCCCN)NC(=O)[C@@H]1CCCN1C(=O)[C@@H](NC(=O)[C@H](C)NC(=O)[C@@H](NC(=O)[C@H](CCC(N)=O)NC(=O)[C@H](Cc1c[nH]cn1)NC(=O)CNC(=O)CNC(=O)[C@@H](N)CO)[C@@H](C)O)C(C)C)C(=O)N[C@@H](CO)C(=O)N[C@@H](CCCCN)C(=O)N[C@@H](CCC(N)=O)C(=O)NCC(=O)N1CCC[C@H]1C(=O)N1CCC[C@H]1C(=O)NCC(=O)N[C@@H](CC(=O)O)C(=O)N[C@@H](Cc1ccccc1)C(=O)N[C@@H](CCC(=O)O)C(=O)N[C@@H](CCC(=O)O)C(=O)N[C@H](C(=O)N1CCC[C@H]1C(=O)N[C@@H](CO)C(=O)N[C@@H](CC(=O)O)C(=O)N[C@@H](CCC(=O)O)C(=O)N[C@H](C(=O)N[C@H](C(=O)N[C@@H](CCC(=O)O)C(=O)O)[C@@H](C)CC)[C@@H](C)CC)[C@@H](C)CC [L16P, G17P] (H-SGGHQTAVPKISKQGPPGDFEEIPSDEIIE-OH)
fold drop in potency compared with avathrin [1]: > 25 fold
Hill slope of thrombin amidolytic inhibition [1]: 0.54±0.02
IC50 [1, 4]: 181 ± 3.76 nM
Hill Slope ([1]; Table 2): 0.54 ± 0.02

TGSDDDDEYDMYESDGDSNEGNDNDEFETAVPRLPNPNSGRDSEHIPMPVN [Hyalomma marginatum rufipes]
IC50 ([1]; IC50 (nM), Table 4, members of variegin family): 32.5 ± 3.94 nM
Ki [1, 5]: 6.13 ± 0.39 nM

CC[C@H](C)[C@H](NC(=O)[C@H](C)NC(=O)[C@H](CC(=O)O)NC(=O)[C@H](CC(=O)O)NC(=O)[C@@H]1CCCN1C(=O)[C@@H](NC(=O)[C@H](CCC(=O)O)NC(=O)[C@H](CCC(=O)O)NC(=O)[C@H](Cc1ccccc1)NC(=O)[C@H](CC(=O)O)NC(=O)CNC(=O)[C@@H]1CCCN1C(=O)[C@@H]1CCCN1C(=O)[C@H](C)NC(=O)[C@@H](NC(=O)[C@H](CO)NC(=O)[C@H](Cc1ccc(O)cc1)NC(=O)[C@@H](N)CCSC)[C@@H](C)O)[C@@H](C)CC)C(=O)N[C@@H](CCC(=O)O)C(=O)N[C@@H](CCC(=O)O)C(=O)O [UV011] (H-MYSTAPPGDFEEIPDDAIEE-OH)
fold better Ki than avathrin C-terminal cleavage product IS20 [1]: around 4 fold
fold better Ki than variegin C-terminal cleavage product MH22 [1]: around 10 fold
IC50 [1, 4]: 1.66 ± 0.77 nM
Ki [1, 5]: 1.39 ± 0.23 nM

CC[C@H](C)[C@H](NC(=O)[C@H](CCCCN)NC(=O)[C@@H]1CCCN1C(=O)[C@@H](NC(=O)[C@H](C)NC(=O)[C@@H](NC(=O)[C@H](CCC(N)=O)NC(=O)[C@H](Cc1c[nH]cn1)NC(=O)CNC(=O)CNC(=O)[C@@H](N)CO)[C@@H](C)O)C(C)C)C(=O)N[C@@H](Cc1c[nH]cn1)C(=O)N[C@@H](CCCCN)C(=O)N[C@@H](CCC(N)=O)C(=O)NCC(=O)N[C@@H](CC(C)C)C(=O)NCC(=O)NCC(=O)N[C@@H](CC(=O)O)C(=O)N[C@@H](Cc1ccccc1)C(=O)N[C@@H](CCC(=O)O)C(=O)N[C@@H](CCC(=O)O)C(=O)N[C@H](C(=O)N1CCC[C@H]1C(=O)N[C@@H](CO)C(=O)N[C@@H](CC(=O)O)C(=O)N[C@@H](CCC(=O)O)C(=O)N[C@H](C(=O)N[C@H](C(=O)N[C@@H](CCC(=O)O)C(=O)O)[C@@H](C)CC)[C@@H](C)CC)[C@@H](C)CC [Peptide S12H] (H-SGGHQTAVPKIHKQGLGGDFEEIPSDEIIE-OH; N-terminus and C-terminus assumed)
fold drop in potency compared with avathrin [1]: 2 fold
Hill slope of thrombin amidolytic inhibition [1]: 0.88±0.02
IC50 [1, 4]: 18.5 ± 0.32 nM
Hill Slope ([1]; Table 2): 0.88 ± 0.02
Ki [1, 5]: 1.23 ± 0.04 nM
